Legend:
Format in all cases: in vivo
Echinochloa crusgalli [1] = assay: Greenhouse herbicidal activity and crop safety comparison (Test Example 2)
Text: (§1) Pre-emergence: Seeds of gramineous weeds (Echinochloa crusgalli, Echinochloa crusgalli var. zelayensis, Echinochloa phyllopogon, Eleusine indica, Digitaria sanguinalis, Leptochloa chinensis, Setaria viridis, Alopecurus japonicus Steud, Beckmannia syzigachne, Polypogon fugax, Alopecurus aequalis, Lolium multiflorum, Poa annua, Aegilops tataschii, Avena fatua, Alopecurus myosuroides, Bromus japonicus), broadleaf weeds (Eclipta prostrata, Amaranthus retroflexus, Rorippa indica, Myosoton aquaticum, Veronica didyma, Galium aparine, Solanum nigrum, Xanthium sibiricum, Conyza canadensis, Sesbania cannabina, Sagittaria trifolia), and Cyperus iria (Cyperus iria, Scirpus juncoides, Cyperus difformis, etc.) were sown in plastic pots (7 cm diameter) with nutrient soil and bottom holes. Crop seeds (including Oryza sativa subsp. indica, Oryza sativa subsp. japonica, Oryza sativa L. var. Glutinosa matsum, Triticum aestivum, Zea mays, Sorghum bicolor, Setaria italica, Glycine max, Gossypium hirsutum, Brassica napus, Arachis hypogaea) were sown in plastic pots (10 cm diameter) with nutrient soil and bottom holes. After sowing, the seeds were lightly covered with soil, and the soil was moistened via bottom water absorption. The pots were placed in a constant-temperature light-controlled growth chamber for 24 hours before soil spraying. Spraying was performed using a 3WP-2000 walking-type spray tower (produced by the Nanjing Agricultural Mechanization Institute, Ministry of Agriculture) with a spindle speed of 96 mm/r, spray height of 300 mm, effective spray width of 350 mm, spray area of 0.35 m^2, and nozzle flow rate of 390 mL/min.
(§2) After treatment, the test materials were air-dried naturally in the laboratory and then transferred to the growth chamber. Results were assessed 14-30 days later.
(§3) Post-emergence: Seeds of gramineous weeds (Echinochloa crusgalli, Echinochloa crusgalli var. zelayensis, Echinochloa phyllopogon, Eleusine indica, Digitaria sanguinalis, Leptochloa chinensis, Setaria viridis, Alopecurus japonicus Steud, Beckmannia syzigachne, Polypogon fugax, Alopecurus aequalis, Lolium multiflorum, Poa annua, Aegilops tataschii, Avena fatua, Alopecurus myosuroides, Bromus japonicus), broadleaf weeds (Eclipta prostrata, Amaranthus retroflexus, Rorippa indica, Myosoton aquaticum, Veronica didyma, Galium aparine, Solanum nigrum, Xanthium sibiricum, Conyza canadensis, Sesbania cannabina, Sagittaria trifolia), and Cyperus iria (Cyperus iria, Scirpus juncoides, Cyperus difformis, etc.) were sown in plastic pots (7 cm diameter) with nutrient soil and bottom holes. Crop seeds (including Oryza sativa subsp. indica, Oryza sativa subsp. japonica, Oryza sativa L. var. Glutinosa matsum, Triticum aestivum, Zea mays, Sorghum bicolor, Setaria italica, Glycine max, Gossypium hirsutum, Brassica napus, Arachis hypogaea) were sown in plastic pots (10 cm diameter) with nutrient soil and bottom holes. After sowing, the pots were placed in the growth chamber until the plants reached the 3-6 leaf stage for foliar spraying. Post-treatment, the materials were air-dried naturally and returned to the growth chamber. Results were assessed 14-21 days later.
(§4) • A: Fresh weight inhibition rate≥80% to 100%; • B: Fresh weight inhibition rate[…] to <80%; • C: Fresh weight inhibition rate≥40% to <60%; • D: Fresh weight inhibition rate≥20% to <40%; • E: Fresh weight inhibition rate<20%; • NT: Not tested.
(§5) Using the above method, the herbicidal activity and crop safety of the present compounds were compared with structurally similar known compounds (CK1, CK2, CK3, CK4: compounds 4-756, 4-759, 1-557, 1-563 from WO2012028579A1; CK5: compound 290-1 from WO2013087577A1; CK6: compound 1-129 from WO2011035874A1).

[2] = test system: Oryza sativa subsp. japonica; assay: as above
Text: as §1, §2, §3, §4, §5

[3] = test system: Oryza sativa subsp. indica; assay: as above
Text: as §1, §2, §3, §4, §5

Echinochloa crusgalli [4] = assay: Greenhouse herbicidal activity assay, post-emergence; details: Post-emergence test, rate 150 g a.i./hm^2, grade by fresh weight inhibition rate; for pest or weed control at 150 g/ha: Echinochloa crus-galli, read-out: Control efficacy grade, Echinochloa crusgalli
How it was run: (§6)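 Graded A (≥80%) to E (<20%) by fresh weight inhibition, read 14-21 days after spraying. Plants were pot-grown in a growth chamber and received foliar application at the 3-6 leaf stage, being air-dried and returned to the chamber afterwards.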

Cyperus iria = assay: as above; details: Post-emergence test, rate 150 g a.i./hm^2, grade by fresh weight inhibition rate; for pest or weed control at 150 g/ha: Cyperus iria, read-out: Control efficacy grade, Cyperus iria
How it was run: as §6

Leptochloa chinensis = assay: as above; details: Post-emergence test, rate 150 g a.i./hm^2, grade by fresh weight inhibition rate; for pest or weed control at 150 g/ha: Dinebra chinensis, read-out: Control efficacy grade, Leptochloa chinensis
How it was run: as §6

Digitaria sanguinalis = assay: as above; details: Post-emergence test, rate 150 g a.i./hm^2, grade by fresh weight inhibition rate; for pest or weed control at 150 g/ha: Digitaria sanguinalis, read-out: Control efficacy grade, Digitaria sanguinalis
How it was run: as §6

Eclipta prostrata = assay: as above; details: Post-emergence test, rate 150 g a.i./hm^2, grade by fresh weight inhibition rate; for pest or weed control at 150 g/ha: Eclipta prostrata, read-out: Control efficacy grade, Eclipta prostrata
How it was run: as §6

CCC[S+]([O-])c1c(S(C)(=O)=O)ccc(C(=O)N(C)c2nnc(C(C)C)o2)c1Cl (racemic) [Compound 3-801] was tested, and the “Echinochloa crusgalli, control efficacy grading (fresh weight inhibition rate)” value (Echinochloa crusgalli [1]; Rate 150 g/ha) was “A (Fresh weight inhibition rate≥80% to 100%)”, the “Oryza sativa subsp. japonica, grading of fresh weight inhibition rate (crop safety)” value ([2]; Rate 150 g/ha) was “E (Fresh weight inhibition rate<20%)” and the “Oryza sativa subsp. indica, grading of fresh weight inhibition rate (crop safety)” value ([3]; Rate 150 g/ha) was “E (Fresh weight inhibition rate<20%)”.

With CC(C)[S+]([O-])c1c(S(C)(=O)=O)ccc(C(=O)N(C)c2nnco2)c1Cl (racemic) [Compound 3-804] the “Oryza sativa subsp. japonica, grading of fresh weight inhibition rate (crop safety)” value ([2]; Rate 150 g/ha) was “E (Fresh weight inhibition rate<20%)”, the “Oryza sativa subsp. indica, grading of fresh weight inhibition rate (crop safety)” value ([3]; Rate 150 g/ha) was “E (Fresh weight inhibition rate<20%)” and the “Control efficacy grade, Echinochloa crusgalli” value (Echinochloa crusgalli [4]) was “A (Fresh weight inhibition rate≥80% to 100%)”.

For Cc1nnc(N(C)C(=O)c2ccc(S(C)(=O)=O)c([S+]([O-])C(C)C)c2Cl)o1 (racemic) [Compound 3-807], the “Oryza sativa subsp. japonica, grading of fresh weight inhibition rate (crop safety)” value ([2]; Rate 75 g/ha) was “E (Fresh weight inhibition rate<20%)”, the “Oryza sativa subsp. japonica, grading of fresh weight inhibition rate (crop safety)” value ([2]; Rate 150 g/ha) was “E (Fresh weight inhibition rate<20%)” and the “Oryza sativa subsp. indica, grading of fresh weight inhibition rate (crop safety)” value ([3]; Rate 75 g/ha) was “E (Fresh weight inhibition rate<20%)”. The “Oryza sativa subsp. indica, grading of fresh weight inhibition rate (crop safety)” value ([3]; Rate 150 g/ha) was “E (Fresh weight inhibition rate<20%)” and the “Control efficacy grade, Echinochloa crusgalli” value (Echinochloa crusgalli [4]) was “A (Fresh weight inhibition rate≥80% to 100%)”.

In the case of CCc1nnc(N(C)C(=O)c2ccc(S(C)(=O)=O)c([S+]([O-])C(C)C)c2Cl)o1 (racemic) [Compound 3-810], the “Oryza sativa subsp. japonica, grading of fresh weight inhibition rate (crop safety)” value ([2]; Rate 150 g/ha) is reported as “E (Fresh weight inhibition rate<20%)”, the “Oryza sativa subsp. indica, grading of fresh weight inhibition rate (crop safety)” value ([3]; Rate 150 g/ha) is reported as “E (Fresh weight inhibition rate<20%)” and the “Control efficacy grade, Echinochloa crusgalli” value (Echinochloa crusgalli [4]) is reported as “B (Fresh weight inhibition rate≥260% to <80%)”.

With Cn1nnnc1NC(=O)c1ccc(S(C)(=O)=O)c(S(C)(=O)=O)c1Cl [CK1, reference compound] the inhibition at 75 g/ha (Echinochloa crusgalli [1]; Echinochloa crus-galli, Rate 75 g/ha, read-out: Echinochloa crusgalli, control efficacy grading (fresh weight inhibition rate)) was 80 to 100%, the inhibition at 150 g/ha (Echinochloa crusgalli [1]; Echinochloa crus-galli, Rate 150 g/ha, read-out: Echinochloa crusgalli, control efficacy grading (fresh weight inhibition rate)) was 80 to 100% and the “Oryza sativa subsp. japonica, grading of fresh weight inhibition rate (crop safety)” value ([2]; Rate 18.75 g/ha) was “C (Fresh weight inhibition rate≥40% to <60%)”. For the same molecule, the “Oryza sativa subsp. japonica, grading of fresh weight inhibition rate (crop safety)” value ([2]; Rate 75 g/ha) was “C (Fresh weight inhibition rate≥40% to <60%)”, the “Oryza sativa subsp. japonica, grading of fresh weight inhibition rate (crop safety)” value ([2]; Rate 150 g/ha) was “B (Fresh weight inhibition rate≥260% to <80%)” and the “Oryza sativa subsp. indica, grading of fresh weight inhibition rate (crop safety)” value ([3]; Rate 18.75 g/ha) was “C (Fresh weight inhibition rate≥40% to <60%)”. The “Oryza sativa subsp. indica, grading of fresh weight inhibition rate (crop safety)” value ([3]; Rate 75 g/ha) was “C (Fresh weight inhibition rate≥40% to <60%)” and the “Oryza sativa subsp. indica, grading of fresh weight inhibition rate (crop safety)” value ([3]; Rate 150 g/ha) was “B (Fresh weight inhibition rate≥260% to <80%)”.

CCc1nnc(NC(=O)c2ccc(S(C)(=O)=O)c([S+]([O-])C(C)C)c2Cl)o1 (centres unmarked) [Compound 3-389, 2-chloro-N-(5-ethyl-1,3,4-oxadiazol-2-yl)-3-(isopropylsulfinyl)-4-(methylsulfonyl)benzamide] gave a pest or weed control at 150 g/ha (Cyperus iria) of 80 to 100%, a pest or weed control at 150 g/ha (Echinochloa crusgalli [4]) of 80 to 100% and a pest or weed control at 150 g/ha (Leptochloa chinensis) of 80 to 100%. For the same molecule, the pest or weed control at 150 g/ha (Digitaria sanguinalis) was 80 to 100% and the pest or weed control at 150 g/ha (Eclipta prostrata) was 80 to 100%.

With CCc1nnc(NC(=O)c2ccc(S(C)(=O)=O)c(SCC3CC3)c2Cl)o1 [Compound 3-414] the “Control efficacy grade, Cyperus iria” value (Cyperus iria) was “A (Fresh weight inhibition rate≥80% to 100%)”, the “Control efficacy grade, Echinochloa crusgalli” value (Echinochloa crusgalli [4]) was “A (Fresh weight inhibition rate≥80% to 100%)” and the “Control efficacy grade, Leptochloa chinensis” value (Leptochloa chinensis) was “A (Fresh weight inhibition rate≥80% to 100%)”. The “Control efficacy grade, Digitaria sanguinalis” value (Digitaria sanguinalis) was “A (Fresh weight inhibition rate≥80% to 100%)” and the “Control efficacy grade, Eclipta prostrata” value (Eclipta prostrata) was “A (Fresh weight inhibition rate≥80% to 100%)”.

With CCc1nnc(NC(=O)c2ccc(S(C)(=O)=O)c(SC3CC3)c2Cl)o1 [Compound 3-419] the “Control efficacy grade, Cyperus iria” value (Cyperus iria) was “A (Fresh weight inhibition rate≥80% to 100%)”, the “Control efficacy grade, Echinochloa crusgalli” value (Echinochloa crusgalli [4]) was “A (Fresh weight inhibition rate≥80% to 100%)” and the “Control efficacy grade, Leptochloa chinensis” value (Leptochloa chinensis) was “A (Fresh weight inhibition rate≥80% to 100%)”. For the same molecule, the “Control efficacy grade, Digitaria sanguinalis” value (Digitaria sanguinalis) was “A (Fresh weight inhibition rate≥80% to 100%)” and the “Control efficacy grade, Eclipta prostrata” value (Eclipta prostrata) was “A (Fresh weight inhibition rate≥80% to 100%)”.

CCc1nnc(NC(=O)c2ccc(S(C)(=O)=O)c(SC3CCC3)c2Cl)o1 [Compound 3-424] was tested, and the “Control efficacy grade, Cyperus iria” value (Cyperus iria) was “A (Fresh weight inhibition rate≥80% to 100%)”, the “Control efficacy grade, Echinochloa crusgalli” value (Echinochloa crusgalli [4]) was “A (Fresh weight inhibition rate≥80% to 100%)” and the “Control efficacy grade, Leptochloa chinensis” value (Leptochloa chinensis) was “A (Fresh weight inhibition rate≥80% to 100%)”. The “Control efficacy grade, Digitaria sanguinalis” value (Digitaria sanguinalis) was “A (Fresh weight inhibition rate≥80% to 100%)” and the “Control efficacy grade, Eclipta prostrata” value (Eclipta prostrata) was “A (Fresh weight inhibition rate≥80% to 100%)”.

With CCc1nnc(NC(=O)c2ccc(S(C)(=O)=O)c(SCC(F)(F)F)c2Cl)o1 [Compound 3-439] the “Control efficacy grade, Cyperus iria” value (Cyperus iria) was “A (Fresh weight inhibition rate≥80% to 100%)”, the “Control efficacy grade, Echinochloa crusgalli” value (Echinochloa crusgalli [4]) was “A (Fresh weight inhibition rate≥80% to 100%)” and the “Control efficacy grade, Leptochloa chinensis” value (Leptochloa chinensis) was “A (Fresh weight inhibition rate≥80% to 100%)”. The “Control efficacy grade, Digitaria sanguinalis” value (Digitaria sanguinalis) was “A (Fresh weight inhibition rate≥80% to 100%)” and the “Control efficacy grade, Eclipta prostrata” value (Eclipta prostrata) was “A (Fresh weight inhibition rate≥80% to 100%)”.

CCC[S+]([O-])c1c(S(C)(=O)=O)ccc(C(=O)Nc2nnc(C(C)C)o2)c1Cl (centres unmarked) [Compound 3-500, 2-chloro-N-(5-isopropyl-1,3,4-oxadiazol-2-yl)-4-(methylsulfonyl)-3-(propylsulfinyl)benzamide] gave a pest or weed control at 150 g/ha (Cyperus iria) of 80 to 100%, a pest or weed control at 150 g/ha (Echinochloa crusgalli [4]) of 80 to 100% and a pest or weed control at 150 g/ha (Leptochloa chinensis) of 80 to 100%. The pest or weed control at 150 g/ha (Digitaria sanguinalis) was 80 to 100% and the pest or weed control at 150 g/ha (Eclipta prostrata) was 80 to 100%.

With CS(=O)(=O)c1ccc(C(=O)Nc2nnc(C3CC3)o2)c(Cl)c1SC1CC1 [Compound 3-651] the “Control efficacy grade, Cyperus iria” value (Cyperus iria) was “A (Fresh weight inhibition rate≥80% to 100%)”, the “Control efficacy grade, Echinochloa crusgalli” value (Echinochloa crusgalli [4]) was “A (Fresh weight inhibition rate≥80% to 100%)” and the “Control efficacy grade, Leptochloa chinensis” value (Leptochloa chinensis) was “A (Fresh weight inhibition rate≥80% to 100%)”. The “Control efficacy grade, Digitaria sanguinalis” value (Digitaria sanguinalis) was “A (Fresh weight inhibition rate≥80% to 100%)” and the “Control efficacy grade, Eclipta prostrata” value (Eclipta prostrata) was “A (Fresh weight inhibition rate≥80% to 100%)”.

Cc1nonc1NC(=O)c1ccc(S(C)(=O)=O)c([S+]([O-])CC2CC2)c1Cl (centres unmarked) [Compound 4-33, 2-chloro-3-((cyclopropylmethyl)sulfinyl)-N-(4-methyl-1,2,5-oxadiazol-3-yl)-4-(methylsulfonyl)benzamide] gave a pest or weed control at 150 g/ha (Cyperus iria) of 80 to 100%, a pest or weed control at 150 g/ha (Echinochloa crusgalli [4]) of 80 to 100% and a pest or weed control at 150 g/ha (Leptochloa chinensis) of 80 to 100%. It also gave a pest or weed control at 150 g/ha (Digitaria sanguinalis) of 80 to 100% and a pest or weed control at 150 g/ha (Eclipta prostrata) of 80 to 100%.

— patent US20250223268A1, “4-Methylsulfonylbenzamide Compound, Preparation Method, Herbicidal Composition And Use” (Jiangsu Flag Chemical Industry Co., Ltd., priority 2022, published 2025)
